The IC50 is the concentration needed to halve the response being measured. By thermodynamic solubility is commonly meant the concentration in solution at equilibrium with solid.

The subject of one series is MDA-MB-231 cancer cells. Nature of the series: MTT cell viability assay, MDA-MB-231 breast cancer cells. Type of series: cell-based, human. The note with it: 48 h incubation. On the procedure:
(§1) Hormone-independent breast adenocarcinoma (MDA-MB-231), hormone-dependent breast adenocarcinoma (MCF7), human pancreatic carcinoma (Mia-Paca), and normal human fibroblast cell lines were purchased from American […] Culture Collection (ATCC, Manassas, VA, USA). Cell lines were cultured to 90% confluence using ATTC guidelines for cell culture prior to experimentation.
A 96 well plate was seeded with 5000 cells/well and incubated for 24 h to allow attachment. […] These compounds were then incubated into the cells for 48 h, followed by MTT assay to determine cell viability. Firstly, 15 µL of the MTT dye solution was incubated in the cells for 3 h. The MTT dye reacts with NADPH present in live cells to form an insoluble purple formazan product. Subsequently, 100 µL of a stop solution was added to solubilize this product and halt the enzymatic reaction between NADPH and MTT. Cells were then incubated with stop solution for 1 h. The absorbance of the formazan was then measured at 570 nm using a microplate spectrophotometer. Cell viability is reported as the ratio between experimental groups and a control normalized to 100%. All measurements were performed in triplicate measurements to obtain standard error, and the reported cell viability is the average of these measurements. The IC50 was calculated using the formula:
(§2) ((0.5−(f(a))×(b−a)+(f(b)−f(a))×a))/(f(b)−f(a)) where a is the concentration where the cell viability is above 50%, b is the concentration where the cell viability is below 50%, and f(a) and f(b) are respectively the cell viability percentages *0.01 at concentration a and b respectively.
For orientation: Tetrazolium assays rely on reduction of a dye to a coloured formazan, in cell work by metabolically active cells.

The next series has as its system MiaPaca cancer cells. The experiment in a line: MTT cell viability assay, MiaPaca pancreatic cancer cells. Also noted: species or system human. The note with it: 48 h incubation. The protocol: as §1
(§3) A 96 well plate was seeded with 5000 cells/well and incubated for 24 h to allow attachment. Serial dilution from 100 µM to 0 µM was performed for each compound. These compounds were then incubated into the cells for 48 h, followed by MTT assay to determine cell viability. Firstly, 15 µL of the MTT dye solution was incubated in the cells for 3 h. The MTT dye reacts with NADPH present in live cells to form an insoluble purple formazan product. Subsequently, 100 µL of a stop solution was added to solubilize this product and halt the enzymatic reaction between NADPH and MTT. Cells were then incubated with stop solution for 1 h. The absorbance of the formazan was then measured at 570 nm using a microplate spectrophotometer. Cell viability is reported as the ratio between experimental groups and a control normalized to 100%. All measurements were performed in triplicate measurements to obtain standard error, and the reported cell viability is the average of these measurements. The IC50 was calculated using the formula:
as §2

The subject of the next series is MCF7 cancer cells. Nature of the series: MTT cell viability assay, MCF7 breast cancer cells. Further details: species or system human. The note with it: 48 h incubation. On the procedure:
as §1, §3, §2

A short description of series [1]: Octanol buffer partition coefficient. Type of series: physicochemical. The note with it: 1-octanol / pH 7.4 phosphate-citric acid buffer, 48 h stirring. The protocol:
Into a 20 mL vial, 1-Octanol is mixed with a pH 7.4 phosphate-citric acid buffer and stirred overnight. The two layers were separated and then a calibration curve was generated for each compound in 1-octanol using various concentrations. The phosphate-citric acid buffer was then added to one of the concentrations (Ci) and this mixture was stirred for 48 h. Subsequently, absorbance in the octanol layer was measured and the concentration (Co) calculated using the calibration curves. Later, the equation Ci − C0 = Cw was used to calculate the aqueous concentration (Cw). The octanol–water partition coefficient was then calculated using the equation Kow = […]/Cw.

The nature of series [2]: Zeta potential of nanoGUMBOS. Type of series: physicochemical. The note with it: nanoGUMBOS at physiological pH (7.4). An excerpt:
Following examination of the hydrophobicity of these GUMBOS, nanoGUMBOS were synthesized using a simple reprecipitaiton method as described in the experimental section. TEM images in Figure 2 are a display of spherical nanoparticles with diameters of ~100 nm for both R123 and SNAFR.

Another series concerns Hs578Bst normal cells. Nature of the series: MTT cell viability assay, Hs578Bst normal breast cells. Type of series: cell-based, human. The note with it: for IC50: RB and R110 GUMBOS and parent dyes, normal breast cells, 48 h incubation, MTT.
A further series in a line: Water solubility study. The note with it: water solubility at physiological pH. Type of series: physicochemical. On the procedure:
Approximately fifty milliliters of water were added to three milligrams of GUMBOS. Absorbance measurements were then acquired over time until the absorbance reached a plateau. A calibration curve for an aqueous solution of GUMBOS was then generated at a soluble concentration, and the slope of the curve was used to calculate the solubility concentration. The solubility constant (Ksp) was then calculated using this concentration.

Where [3] appears, read: R123- and SNAFR-5-based nanoGUMBOS and parent dyes.
[4] abbreviates: Homo sapiens, MDA-MB-231, 48 h, RB and R110 GUMBOS and parent dyes.
[5] abbreviates: RB and R110 GUMBOS and parent dyes.

In the case of `COC(=O)c1ccccc1-c1c2ccc(N)cc2[o+]c2cc(N)ccc12.O=S(=O)([N-]S(=O)(=O)C(F)(F)C(F)(F)F)C(F)(F)C(F)(F)F` [[R123][BETI]], the IC50 is 17.4 ± 3.7 µM with MDA-MB-231 cancer cells (setting [3]), 1.6 ± 0.7 µM in the series on MiaPaca cancer cells (setting [3]) and more than 100 µM in the series with MCF7 cancer cells (setting [3]). In series [1], the “Log Kow” value is listed as 1.1. Moreover, in series [2], the “Zeta Potential” value is reported as −16.8 ± 1.1 mV.
In the same order, the values of `COC(=O)c1ccccc1-c1c2ccc(=[NH2+])cc-2oc2cc(N)ccc12.c1ccc([B-](c2ccccc2)(c2ccccc2)c2ccccc2)cc1` [[R123][TPB]] are 20.6 ± 3.5 µM, 2.5 ± 0.9 µM, more than 100 µM, 0.8 and −16.5 ± 1.4 mV.
For the molecule `CCN(CC)c1ccc2c(-c3ccccc3C(=O)O)c3ccc(=[N+](CC)CC)cc-3oc2c1` [[RB][Cl], Rhodamine B chloride, reference compound], the IC50 in the series with MDA-MB-231 cancer cells (setting [4]) is 291 ± 1.2 µM; with Hs578Bst normal cells (Homo sapiens, Hs578Bst), 500 ± 5.2 µM. Also, the “Log Kow” value in series [1] stood at 1.1.
Regarding `CCN(CC)c1ccc2c(-c3ccccc3C(=O)O)c3ccc(=[N+](CC)CC)cc-3oc2c1.O=S(=O)([N-]S(=O)(=O)C(F)(F)C(F)(F)F)C(F)(F)C(F)(F)F` [[RB][BETI]], the figures for the IC50 in the series with MDA-MB-231 cancer cells (setting [5]) and in the series with Hs578Bst normal cells were 89.5 ± 3.4 µM and 540 ± 6.2 µM, respectively. In addition, the “Log Kow” value in series [1] stood at 1.25.
For `COC(=O)c1ccccc1-c1c2ccc(=N)cc-2oc2cc(N)ccc12` [[R123][Cl], rhodamine 123, reference compound], the IC50 was 24.3 ± 2.2 µM in the series with MDA-MB-231 cancer cells (Homo sapiens, MDA-MB-231, R123- and SNAFR-5-based nanoGUMBOS and parent dyes); 3.1 ± 1.1 µM in the series with MiaPaca cancer cells (Homo sapiens, MIA PaCa-2, R123- and SNAFR-5-based nanoGUMBOS and parent dyes); more than 100 µM in the series with MCF7 cancer cells (Homo sapiens, MCF7, R123- and SNAFR-5-based nanoGUMBOS and parent dyes). Besides, the “Toxicity towards Hs578Bst normal cells” value with Hs578Bst normal cells (result in words, Figure 6) is “slight toxicity towards normal cells”. Moreover, the “Log Kow” value in series [1] amounted to 0.25.
As for `N=c1ccc2c(-c3ccccc3C(=O)O)c3ccc(N)cc3oc-2c1` [[R110][Cl], rhodamine 110 chloride, reference compound], the concentration for half-maximal inhibition (IC50) came to 781 µM in the series on MDA-MB-231 cancer cells (setting [4]); 791.2 ± 2.7 µM in the series on MDA-MB-231 cancer cells (setting [5]); 836.1 ± 5.3 µM with Hs578Bst normal cells (Homo sapiens, Hs578Bst). For the same molecule, the “Log Kow” value in series [1] was 0.22. In addition, in the series “Water solubility study”, the thermodynamic solubility is more than 700 µM.
For the molecule `CCN(CC)c1ccc2c(-c3ccccc3C(=O)O)c3ccc(=[N+](CC)CC)cc-3oc2c1.c1ccc([B-](c2ccccc2)(c2ccccc2)c2ccccc2)cc1` [[RB][TPB]], the half-inhibitory concentration (IC50) in the series on MDA-MB-231 cancer cells (setting [5]) worked out at 77.5 ± 5.7 µM; in the series on Hs578Bst normal cells it was 533.7 ± 3.3 µM. Further, in series [1], the “Log Kow” value was 1.6.
